# Test results taken from patent US7935853B2, “Micronized composition of a 2,4-disubstituted phenol derivative” (priority 2008, dated 2011).
# Tested on: arthritis induced by injection of type II collagen in the mouse
# Assay: Model of arthritis induced by type II collagen in mice (CIA), hind paw plethysmometry
# Assay type: in vivo
# Conditions: for Total hind paw volume (sum of both hind paws) / Oedema (difference in paw volume from basal values on day 21) in both hind paws: group mean n=10
# Procedure: The aim of the study was to determine the anti-inflammatory activity of the test item in a model of arthritis induced by injection of type II collagen in the mouse (CIA) and to compare the activity of two different formulations: micronized and non-micronized.
# Induction of arthritis was carried out by an initial exposure to type II bovine collagen by a subcutaneous injection at the base of the tail (induction phase).
# After a recovery time of 21 days, animals received a booster injection and approximately 4-5 weeks after the first injection there was an immune response with arthritis appearing in the extremities in the majority of the cases.
# Four experimental groups were used in the study with 10 animals in each group:
# Group D: Positive control: FCA+vehicle B.I.D.
# Group E: Micronized Test Item (Micro) 10 mg/kg B.I.D.
# Group F: Non-Micronized test item 10 mg/kg B.I.D.
# Group G: Reference item: Indomethacin 1 mg/kg Q.D.
# The dose administered to groups E and F was 10 mg/kg.
# The dose administered to group G was 1 mg/kg.
# The doses of the test and reference items were expressed as mg/Kg of compound administered to each animal.
# The test and reference items were administered in a solution of methylcellulose (0.25%: vehicle).
# The positive control group received the vehicle (methylcellulose 0.25%).
# The test and reference items, as well as the vehicle were administered orally at a dosing volume of 5 mls/kg.
# The route of administration used was oral by use of an intragastric cannula.
# On the day of start of the study each mouse was injected subcutaneously at the base of the tail with a first dose of 0.1 ml of an emulsion of bovine type II collagen (1 mg/mL) in Freund's Complete Adjuvant. Afterwards, on day 21 after this first injection, a second booster injection of type II collagen was administered to all animals. In this occasion the collagen suspension was done using Incomplete Freund's Adjuvant.
# Coinciding with the second booster injection on day 21 treatment with the test or reference items was started to the corresponding animals.
# Treatment with the test or reference items was carried out for 31 consecutive days (days 21-51 of the experimental period). Additionally, a recovery period was included at the end of the treatment period from day 52 to day 65 in order to evaluate the duration of any anti-inflammatory effect observed once dosing has been terminated.
# The animals' hind paw volume was measured by plethysmometry one day before the 1st injection of collagen, again one day before the second (booster) collagen injection (basal values) and then daily after administration of test/reference item until the end of the study. During the recovery period at the end of the study, hind paw volume was measured three times per week.
# Additionally the data was also represented graphically, depicting changes in total hind paw volume, as well as oedema (differences from basal (day 21) values).
# [1] = day 22, oral treatment days 21-51, listed as Group F
# [2] = day 23, oral treatment days 21-51, listed as Group F
# [3] = day 26, oral treatment days 21-51, listed as Group F
# [4] = day 27, oral treatment days 21-51, listed as Group F
# [5] = day 29, oral treatment days 21-51, listed as Group F
# [6] = day 30, oral treatment days 21-51, listed as Group F
# [7] = day 33, oral treatment days 21-51, listed as Group F
# [8] = day 34, oral treatment days 21-51, listed as Group F
# [9] = day 35, oral treatment days 21-51, listed as Group F
# [10] = day 36, oral treatment days 21-51, listed as Group F
# [11] = day 37, oral treatment days 21-51, listed as Group F
# [12] = day 41, oral treatment days 21-51, listed as Group F
# [13] = day 42, oral treatment days 21-51, listed as Group F
# [14] = day 43, oral treatment days 21-51, listed as Group F
# [15] = day 44, oral treatment days 21-51, listed as Group F
# [16] = day 47, oral treatment days 21-51, listed as Group F
# [17] = day 48, oral treatment days 21-51, listed as Group F
# [18] = day 49, oral treatment days 21-51, listed as Group F
# [19] = day 50, oral treatment days 21-51, listed as Group F
# [20] = day 51, oral treatment days 21-51, listed as Group F
# [21] = day 54, recovery period after treatment days 21-51, listed as Group F
# [22] = day 56, recovery period after treatment days 21-51, listed as Group F
# [23] = day 58, recovery period after treatment days 21-51, listed as Group F
# [24] = day 61, recovery period after treatment days 21-51, listed as Group F
# [25] = day 63, recovery period after treatment days 21-51, listed as Group F
# [26] = day 65, recovery period after treatment days 21-51, listed as Group F
compound,measurement,setting,value
"Oc1c(I)cc(I)cc1I [Non-Micronized, 2,4,6-triiodophenol]",Total hind paw volume (sum of both hind paws),"day 0, before collagen and treatment, listed as Group F",0.189
same,Total hind paw volume (sum of both hind paws),"day 20, basal, before treatment, listed as Group F",0.243
same,Oedema (difference in paw volume from basal values on day 21) in both hind paws,[1],−0.003
same,Total hind paw volume (sum of both hind paws),[1],0.240
same,Oedema (difference in paw volume from basal values on day 21) in both hind paws,[2],0.007
same,Total hind paw volume (sum of both hind paws),[2],0.250
same,Oedema (difference in paw volume from basal values on day 21) in both hind paws,[3],0.010
same,Total hind paw volume (sum of both hind paws),[3],0.253
same,Oedema (difference in paw volume from basal values on day 21) in both hind paws,[4],−0.001
same,Total hind paw volume (sum of both hind paws),[4],0.242
same,Oedema (difference in paw volume from basal values on day 21) in both hind paws,[5],0.006
same,Total hind paw volume (sum of both hind paws),[5],0.248
same,Oedema (difference in paw volume from basal values on day 21) in both hind paws,[6],0.016
same,Total hind paw volume (sum of both hind paws),[6],0.259
same,Oedema (difference in paw volume from basal values on day 21) in both hind paws,[7],0.007
same,Total hind paw volume (sum of both hind paws),[7],0.250
same,Oedema (difference in paw volume from basal values on day 21) in both hind paws,[8],0.011
same,Total hind paw volume (sum of both hind paws),[8],0.254
same,Oedema (difference in paw volume from basal values on day 21) in both hind paws,[9],0.013
same,Total hind paw volume (sum of both hind paws),[9],0.255
same,Oedema (difference in paw volume from basal values on day 21) in both hind paws,[10],0.011
same,Total hind paw volume (sum of both hind paws),[10],0.254
same,Oedema (difference in paw volume from basal values on day 21) in both hind paws,[11],0.000
same,Total hind paw volume (sum of both hind paws),[11],0.243
same,Total hind paw volume (sum of both hind paws),"day 40, oral treatment days 21-51",0.273
same,Oedema (difference in paw volume from basal values on day 21) in both hind paws,"day 40, oral treatment days 21-51, listed as Group F",0.030
same,Oedema (difference in paw volume from basal values on day 21) in both hind paws,[12],0.028
same,Total hind paw volume (sum of both hind paws),[12],0.271
same,Oedema (difference in paw volume from basal values on day 21) in both hind paws,[13],0.021
same,Total hind paw volume (sum of both hind paws),[13],0.264
same,Oedema (difference in paw volume from basal values on day 21) in both hind paws,[14],0.013
same,Total hind paw volume (sum of both hind paws),[14],0.255
same,Oedema (difference in paw volume from basal values on day 21) in both hind paws,[15],0.006
same,Total hind paw volume (sum of both hind paws),[15],0.248
same,Oedema (difference in paw volume from basal values on day 21) in both hind paws,[16],0.031
same,Total hind paw volume (sum of both hind paws),[16],0.273
same,Oedema (difference in paw volume from basal values on day 21) in both hind paws,[17],0.034
same,Total hind paw volume (sum of both hind paws),[17],0.277
same,Oedema (difference in paw volume from basal values on day 21) in both hind paws,[18],0.039
same,Total hind paw volume (sum of both hind paws),[18],0.281
same,Oedema (difference in paw volume from basal values on day 21) in both hind paws,[19],0.046
same,Total hind paw volume (sum of both hind paws),[19],0.289
same,Oedema (difference in paw volume from basal values on day 21) in both hind paws,[20],0.046
same,Total hind paw volume (sum of both hind paws),[20],0.288
same,Oedema (difference in paw volume from basal values on day 21) in both hind paws,[21],0.065
same,Total hind paw volume (sum of both hind paws),[21],0.307
same,Oedema (difference in paw volume from basal values on day 21) in both hind paws,[22],0.062
same,Total hind paw volume (sum of both hind paws),[22],0.304
same,Oedema (difference in paw volume from basal values on day 21) in both hind paws,[23],0.070
same,Total hind paw volume (sum of both hind paws),[23],0.312
same,Oedema (difference in paw volume from basal values on day 21) in both hind paws,[24],0.063
same,Total hind paw volume (sum of both hind paws),[24],0.31
same,Oedema (difference in paw volume from basal values on day 21) in both hind paws,[25],0.073
same,Total hind paw volume (sum of both hind paws),[25],0.32
same,Oedema (difference in paw volume from basal values on day 21) in both hind paws,[26],0.072
same,Total hind paw volume (sum of both hind paws),[26],0.31
same,effect on hind paw oedema (in words),"test item 10 mg/kg BID, Indomethacin 1 mg/kg Q.D, oral",did not result in any significant inhibition
